Experimental data: patent US8952024B2, “Herbicidal pyrimidone derivatives” (E I du Pont de Nemours and Company, priority 2009, dated 2015)

Experiments:
Type in all cases: in vivo
[1] = tested on: goosegrass (Eleusine indica); test: Test B pre-/postemergence plant response; details: Preemergence, 62 g ai/ha; scale 0 to 100 (0 no effect, 100 complete control)
[2] = tested on: spring wheat (Triticum aestivum); test: Test C plant response; details: Postemergence, scale 0 to 100
From the text: (§1) Seeds of plant species selected from bluegrass (annual bluegrass, Poa annua), blackgrass (Alopecurus myosuroides), canarygrass (Phalaris minor), chickweed (common chickweed, Stellaria media), galium (catchweed bedstraw, Galium aparine), bromegrass (downy bromegrass, Bromus tectorum), field poppy (Papaver rhoeas), field violet (Viola arvensis), green foxtail (Setaria viridis), deadnettle (henbit deadnettle, Lamium amplexicaule), Italian ryegrass (Lolium multiflorum), kochia (Kochia scoparia), lambsquarters (Chenopodium album), oilseed rape (Brassica napus), pigweed (Amaranthus retroflexus), Russian thistle (Salsola iberica), spring barley (Hordeum vulgare), spring wheat (Triticum aestivum), buckwheat (wild buckwheat, Polygonum convolvulus), wild mustard (Sinapis arvensis), wild oat (Avena fatua), wild radish (Raphanus raphanistrum), windgrass (Apera spica-venti), winter barley (Hordeum vulgare), and winter wheat (Triticum aestivum) were planted and treated postemergence with test chemicals formulated in a non-phytotoxic solvent mixture which included a surfactant. Plants ranged in height from 2 to 18 cm (1- to 4-leaf stage).
(§2) Treated plants and controls were maintained in a controlled growth environment for 14 days after which time all test plants were visually evaluated and compared to controls. Plant response ratings, summarized in Table C, are based on a scale of 0 to 100 where 0 is no effect and 100 is complete control. A dash (-) response means no test result.

[3] = tested on: lambsquarters (Chenopodium album); test: Test C plant response; details: Postemergence, scale 0 to 100
From the text: as §1, §2

[4] = tested on: winter wheat (Triticum aestivum); test: Test C plant response; details: Postemergence, scale 0 to 100
From the text: as §1, §2

[5] = tested on: buckwheat (wild buckwheat, Polygonum convolvulus); test: Test C plant response; details: Postemergence, scale 0 to 100
From the text: as §1, §2

[6] = tested on: windgrass (Apera spica-venti); test: Test C plant response; details: Postemergence, scale 0 to 100
From the text: as §1, §2

Cc1cc(C)cc(-n2c(-c3ccccc3)ncc(C(=O)C3=C(O)CCCC3=O)c2=O)c1 [Compound 33]
Plant response rating, Goosegrass [1]: 85 | Plant response rating: Wheat, Spring ([2]; 31 g ai/ha): 10 | Plant response rating: Wheat, Spring ([2]; 16 g ai/ha): 10 | Plant response rating: Wheat, Spring ([2]; 62 g ai/ha): 10 | Plant response rating: Wheat, Spring ([2]; 125 g ai/ha): 10 | Plant response rating: Lambsquarters ([3]; 31 g ai/ha): 98 | Plant response rating: Lambsquarters ([3]; 16 g ai/ha): 98 | Plant response rating: Lambsquarters ([3]; 62 g ai/ha): 100 | Plant response rating: Lambsquarters ([3]; 125 g ai/ha): 100 | Plant response rating: Wheat, Winter ([4]; 31 g ai/ha): 0 | Plant response rating: Wheat, Winter ([4]; 16 g ai/ha): 0 | Plant response rating: Wheat, Winter ([4]; 62 g ai/ha): 5 | Plant response rating: Wheat, Winter ([4]; 125 g ai/ha): 5 | Plant response rating: Buckwheat, Wild ([5]; 31 g ai/ha): 65 | Plant response rating: Buckwheat, Wild ([5]; 16 g ai/ha): 60 | Plant response rating: Buckwheat, Wild ([5]; 62 g ai/ha): 75 | Plant response rating: Buckwheat, Wild ([5]; 125 g ai/ha): 75 | Plant response rating: Windgrass ([6]; 31 g ai/ha): 20 | Plant response rating: Windgrass ([6]; 16 g ai/ha): 0 | Plant response rating: Windgrass ([6]; 62 g ai/ha): 25 | Plant response rating: Windgrass ([6]; 125 g ai/ha): 40

3-cyclohexyl-5-[(2-hydroxy-6-oxo-1-cyclohexen-1-yl)carbonyl]-2-phenyl-4(3H)-pyrimidinone [Compound 128]
Plant response rating, Goosegrass [1]: 95 | Plant response rating: Wheat, Spring ([2]; 31 g ai/ha): 20 | Plant response rating: Wheat, Spring ([2]; 16 g ai/ha): 5 | Plant response rating: Wheat, Spring ([2]; 62 g ai/ha): 35 | Plant response rating: Wheat, Spring ([2]; 125 g ai/ha): 40 | Plant response rating: Lambsquarters ([3]; 31 g ai/ha): 98 | Plant response rating: Lambsquarters ([3]; 16 g ai/ha): 98 | Plant response rating: Lambsquarters ([3]; 62 g ai/ha): 98 | Plant response rating: Lambsquarters ([3]; 125 g ai/ha): 100 | Plant response rating: Wheat, Winter ([4]; 31 g ai/ha): 30 | Plant response rating: Wheat, Winter ([4]; 16 g ai/ha): 0 | Plant response rating: Wheat, Winter ([4]; 62 g ai/ha): 30 | Plant response rating: Wheat, Winter ([4]; 125 g ai/ha): 35 | Plant response rating: Buckwheat, Wild ([5]; 31 g ai/ha): 70 | Plant response rating: Buckwheat, Wild ([5]; 16 g ai/ha): 65 | Plant response rating: Buckwheat, Wild ([5]; 62 g ai/ha): 80 | Plant response rating: Buckwheat, Wild ([5]; 125 g ai/ha): 80 | Plant response rating: Windgrass ([6]; 31 g ai/ha): 70 | Plant response rating: Windgrass ([6]; 16 g ai/ha): 60 | Plant response rating: Windgrass ([6]; 62 g ai/ha): 85 | Plant response rating: Windgrass ([6]; 125 g ai/ha): 95

Cc1ccccc1-n1c(-c2ccccc2)ncc(C(=O)C2=C(O)CCCC2=O)c1=O [Compound 12]
Plant response rating, Goosegrass [1]: 95 | Plant response rating: Wheat, Spring ([2]; 31 g ai/ha): 0 | Plant response rating: Wheat, Spring ([2]; 16 g ai/ha): 0 | Plant response rating: Wheat, Spring ([2]; 62 g ai/ha): 0 | Plant response rating: Wheat, Spring ([2]; 125 g ai/ha): 0 | Plant response rating: Lambsquarters ([3]; 31 g ai/ha): 80 | Plant response rating: Lambsquarters ([3]; 16 g ai/ha): 70 | Plant response rating: Lambsquarters ([3]; 62 g ai/ha): 80 | Plant response rating: Lambsquarters ([3]; 125 g ai/ha): 95 | Plant response rating: Wheat, Winter ([4]; 31 g ai/ha): 0 | Plant response rating: Wheat, Winter ([4]; 16 g ai/ha): 0 | Plant response rating: Wheat, Winter ([4]; 62 g ai/ha): 0 | Plant response rating: Wheat, Winter ([4]; 125 g ai/ha): 10 | Plant response rating: Buckwheat, Wild ([5]; 31 g ai/ha): 15 | Plant response rating: Buckwheat, Wild ([5]; 16 g ai/ha): 10 | Plant response rating: Buckwheat, Wild ([5]; 62 g ai/ha): 50 | Plant response rating: Buckwheat, Wild ([5]; 125 g ai/ha): 50 | Plant response rating: Windgrass ([6]; 31 g ai/ha): 20 | Plant response rating: Windgrass ([6]; 16 g ai/ha): 5 | Plant response rating: Windgrass ([6]; 125 g ai/ha): 50

O=C1CCCC(O)=C1C(=O)c1cnc(-c2ccccc2)n(-c2cccc(Br)c2)c1=O [Compound 38]
Plant response rating, Goosegrass [1]: 100

O=C1CCCC(O)=C1C(=O)c1cnc(-c2ccccc2)n(-c2ccccc2F)c1=O [Compound 26]
Plant response rating, Goosegrass [1]: 80

Cc1c(Cl)cccc1-n1c(-c2ccccc2)ncc(C(=O)C2=C(O)CCCC2=O)c1=O [Compound 40]
Plant response rating, Goosegrass [1]: 98

Cc1ccc(F)cc1-n1c(-c2ccccc2)ncc(C(=O)C2=C(O)CCCC2=O)c1=O [Compound 44]
Plant response rating, Goosegrass [1]: 98

Cc1cccc(Cl)c1-n1c(-c2ccccc2)ncc(C(=O)C2=C(O)CCCC2=O)c1=O [Compound 46]
Plant response rating, Goosegrass [1]: 95

Cc1ccccc1-n1c(-c2cccc(Cl)c2)ncc(C(=O)C2=C(O)CCCC2=O)c1=O [Compound 36]
Plant response rating, Goosegrass [1]: 90

Cc1ccc(-n2c(-c3ccccc3)ncc(C(=O)C3=C(O)CCCC3=O)c2=O)cc1 [Compound 8]
Plant response rating: Wheat, Spring ([2]; 31 g ai/ha): 5 | Plant response rating: Wheat, Spring ([2]; 16 g ai/ha): 5 | Plant response rating: Wheat, Spring ([2]; 62 g ai/ha): 5 | Plant response rating: Wheat, Spring ([2]; 125 g ai/ha): 20 | Plant response rating: Lambsquarters ([3]; 31 g ai/ha): 98 | Plant response rating: Lambsquarters ([3]; 16 g ai/ha): 98 | Plant response rating: Lambsquarters ([3]; 62 g ai/ha): 98 | Plant response rating: Lambsquarters ([3]; 125 g ai/ha): 100 | Plant response rating: Wheat, Winter ([4]; 31 g ai/ha): 10 | Plant response rating: Wheat, Winter ([4]; 16 g ai/ha): 10 | Plant response rating: Wheat, Winter ([4]; 62 g ai/ha): 25 | Plant response rating: Wheat, Winter ([4]; 125 g ai/ha): 30 | Plant response rating: Buckwheat, Wild ([5]; 31 g ai/ha): 65 | Plant response rating: Buckwheat, Wild ([5]; 16 g ai/ha): 65 | Plant response rating: Buckwheat, Wild ([5]; 62 g ai/ha): 65 | Plant response rating: Buckwheat, Wild ([5]; 125 g ai/ha): 65 | Plant response rating: Windgrass ([6]; 31 g ai/ha): 10 | Plant response rating: Windgrass ([6]; 16 g ai/ha): 0 | Plant response rating: Windgrass ([6]; 62 g ai/ha): 20 | Plant response rating: Windgrass ([6]; 125 g ai/ha): 60

COc1ccc(-n2c(-c3ccccc3)ncc(C(=O)C3=C(O)CCCC3=O)c2=O)cc1 [Compound 4, 5-[(2-hydroxy-6-oxo-cyclohexen-1-yl)carbonyl]-3-(4-methoxyphenyl)-2-phenyl-4(3H)-pyrimidinone]
Plant response rating: Wheat, Spring ([2]; 31 g ai/ha): 15 | Plant response rating: Wheat, Spring ([2]; 125 g ai/ha): 20 | Plant response rating: Lambsquarters ([3]; 31 g ai/ha): 100 | Plant response rating: Lambsquarters ([3]; 125 g ai/ha): 100 | Plant response rating: Wheat, Winter ([4]; 31 g ai/ha): 0 | Plant response rating: Wheat, Winter ([4]; 125 g ai/ha): 20 | Plant response rating: Buckwheat, Wild ([5]; 31 g ai/ha): 95 | Plant response rating: Buckwheat, Wild ([5]; 125 g ai/ha): 100 | Plant response rating: Windgrass ([6]; 31 g ai/ha): 35 | Plant response rating: Windgrass ([6]; 125 g ai/ha): 95

CCCCc1ncc(C(=O)C2=C(O)CCCC2=O)c(=O)n1-c1ccccc1 [Compound 42]
Plant response rating, Goosegrass [1]: 95
